US20150307938A1, “METHOD TO IDENTIFY A NOVEL CLASS OF IMMUNOLOGIC ADJUVANTS” (Lancell, L.L.C., priority 2011, published 2015)

System: skin
Test: Affymetrix microarray of skin, DBP-4 hr and analogs vs. untreated; gene selection by log-2 fold change, Wilcoxon, Kendall tau (Tables 8, 9)
Format: in vivo, mouse
Conditions: DBP-4 hr

CCCCOC(=O)c1ccccc1C(=O)OCCCC [DBP, dibutylphthalate]
DBP Expression: Nr4a2 (NM_013613_at): 7.45 | DBP Expression: Ccl7 (NM_013654_at): 8.86 | DBP Expression: Plk3 (NM_013807_at): 8.72 | DBP Expression: Bcar3 (NM_013867_at): 7.96 | DBP Expression: Clic4 (NM_013885_at): 9.05 | DBP Expression: Rgs1 (NM_015811_at): 7.35 | DBP Expression: Aqp3 (NM_016689_at): 10.49 | DBP Expression: Map3k6 (NM_016693_at): 8.79 | DBP Expression: Krt35 (NM_016880_at): 5.45 | DBP Expression: Ccl20 (NM_016960_at): 11.11 | DBP Expression: Nfil3 (NM_017373_at): 8.13 | DBP Expression: Arc (NM_018790_at): 6.81 | DBP Expression: Cd86 (NM_019388_at): 7.42 | DBP Expression: Nfkb2 (NM_019408_at): 8.26 | DBP Expression: Ramp3 (NM_019511_at): 7.94 | DBP Expression: Pde4b (NM_019840_at): 8.96 | DBP Expression: Clec7a (NM_020008_at): 9.14 | DBP Expression: Angptl4 (NM_020581_at): 9.51 | DBP Expression: Pmaip1 (NM_021451_at): 8.41 | DBP Expression: Gpr35 (NM_022320_at): 5.63 | DBP Expression: Ptges (NM_022415_at): 8.31 | DBP Expression: Cxcl16 (NM_023158_at): 8.99 | DBP Expression: Zfp593 (NM_024215_at): 6.14 | DBP Expression: Pqlc1 (NM_025861_at): 10.20 | DBP Expression: Efhd2 (NM_025994_at): 10.57 | DBP Expression: Slc39a8 (NM_026228_at): 6.13 | DBP Expression: Dusp6 (NM_026268_at): 10.59 | DBP Expression: 1810011010Rik (NM_026931_at): 9.68 | DBP Expression: Pvr (NM_027514_at): 6.71 | DBP Expression: 1810055G02Rik (NM_028077_at): 8.40 | DBP Expression: Rnf19b (NM_029219_at): 8.99 | DBP Expression: Slc10a6 (NM_029415_at): 9.28 | DBP Expression: Abcc3 (NM_029600_at): 7.87 | DBP Expression: 1600029D21Rik (NM_029639_at): 10.16 | DBP Expression: Klrb 1b (NM_030599_at): 6.58 | DBP Expression: Il6 (NM_031168_at): 6.41 | DBP Expression: Bcl3 (NM_033601_at): 8.92 | DBP Expression: Epgn (NM_053087_at): 9.09 | DBP Expression: Otud7a (NM_130880_at): 7.23 | DBP Expression: Ier3 (NM_133662_at): 11.24 | DBP Expression: Prss22 (NM_133731_at): 7.96 | DBP Expression: Errfi1 (NM_133753_at): 10.14 | DBP Expression: Uap1 (NM_133806_at): 9.16 | DBP Expression: Stk17b (NM_133810_at): 9.70 | DBP Expression: Havcr2 (NM_134250_at): 7.20 | DBP Expression: Cytip (NM_139200_at): 9.90 | DBP Expression: Slc39a14 (NM_144808_at): 6.31 | DBP Expression: Cd207 (NM_144943_at): 10.32 | DBP Expression: Pyy (NM_145435_at): 9.16 | DBP Expression: Deptor (NM_145470_at): 9.12 | DBP Expression: Smox (NM_145533_at): 8.07 | DBP Expression: Arid5a (NM_145996_at): 7.61 | DBP Expression: Slc25a25 (NM_146118_at): 8.10 | DBP Expression: Kctd11 (NM_153143_at): 9.35 | DBP Expression: Dusp7 (NM_153459_at): 8.85 | DBP Expression: Adamts4 (NM_172845_at): 6.21 | DBP Expression: Fam43a (NM_177632_at): 9.07 | DBP Expression: Coro2a (NM_178893_at): 7.02 | DBP Expression: Gyk (NM_212444_at): 9.63 | DBP Expression: Il4ra (NM_001008700_at): 7.47 | DBP Expression: Il1rl1 (NM_001025602_at): 8.40 | DBP Expression: Zbtb16 (NM_001033324_at): 6.93 | DBP Expression: Deptor (NM_001037937_at): 9.12 | DBP Expression: Cd44 (NM_001039150_at): 9.82 | DBP Expression: Cd44 (NM_001039151_at): 9.82 | DBP Expression: Irs2 (NM_001081212_at): 8.35 | DBP Expression: Pprc1 (NM_001081214_at): 8.81 | DBP Expression: Gpr35 (NM_001104529_at): 5.63 | DBP Expression: Crem (NM_001110850_at): 6.91 | DBP Expression: Crem (NM_001110853_at): 6.26 | DBP Expression: Crem (NM_001110854_at): 6.91 | DBP Expression: Crem (NM_001110855_at): 6.91 | DBP Expression: Crem (NM_001110856_at): 6.91 | DBP Expression: Crem (NM_001110857_at): 6.26 | DBP Expression: Crem (NM_001110858_at): 6.26 | DBP Expression: Crem (NM_001110859_at): 6.26 | DBP Expression: Slc39a8 (NM_001135149_at): 6.13 | DBP Expression: Slc39a8 (NM_001135150_at): 6.13 | DBP Expression: Slc39a14 (NM_001135151_at): 6.31 | DBP Expression: Slc39a14 (NM_001135152_at): 6.31 | DBP Expression: Nr4a2 (NM_001139509_at): 7.45 | DBP Expression: Ccl20 (NM_001159738_at): 11.11 | DBP Expression: Slc25a25 (NM_001164357_at): 8.10 | DBP Expression: Slc25a25 (NM_001164358_at): 8.10 | DBP Expression: Pqlc1 (NM_001164420_at): 10.20 | DBP Expression: Pqlc1 (NM_001164421_at): 10.20 | DBP Expression: Pqlc1 (NM_001164422_at): 10.20 | DBP Expression: Coro2a (NM_001164804_at): 7.02 | DBP Expression: Tnfaip3 (NM_001166402_at): 7.22
